In BindingDB's records for patent US12173018 (Venatorx Pharmaceuticals, 2024):

Target: T1, Peptidoglycan D,D-transpeptidase FtsI (UniProt P0AD68)
T1 sequence (P0AD68 whole entry): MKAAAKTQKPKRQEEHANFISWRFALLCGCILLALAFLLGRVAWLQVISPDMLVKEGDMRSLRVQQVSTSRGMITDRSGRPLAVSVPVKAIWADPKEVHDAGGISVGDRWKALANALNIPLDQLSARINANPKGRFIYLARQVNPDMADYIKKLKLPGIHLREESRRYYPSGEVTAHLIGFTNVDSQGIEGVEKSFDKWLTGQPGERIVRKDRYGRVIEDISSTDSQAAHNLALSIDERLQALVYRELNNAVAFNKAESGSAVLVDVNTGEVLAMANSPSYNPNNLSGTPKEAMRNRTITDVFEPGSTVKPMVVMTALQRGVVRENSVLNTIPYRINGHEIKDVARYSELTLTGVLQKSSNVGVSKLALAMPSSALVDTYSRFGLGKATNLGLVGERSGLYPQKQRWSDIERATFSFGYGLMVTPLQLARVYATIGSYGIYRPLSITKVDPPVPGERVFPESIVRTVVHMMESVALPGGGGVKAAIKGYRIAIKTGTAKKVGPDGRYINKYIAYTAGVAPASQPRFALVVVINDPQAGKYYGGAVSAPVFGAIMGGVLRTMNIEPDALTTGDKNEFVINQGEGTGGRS
Test: Fluorescence Polarization (FP) Competition Binding Assay
Description: To establish assay conditions for competition binding, an enzyme titration/saturation binding experiment was initially performed. Bocillin-FL was prepared at 0.2 μM in a buffer comprised of 50 mM Hepes (pH 8.0), 300 mM NaCl and 5% (v/v) glycerol. […] FP was measured immediately upon mixing (Excitation, 490 nm; Emission, 520 nm; g-factor, 0.96), using a Cytation3 (BioTek) microplate reader and measured continuously for up to 120 minutes. […] Bocillin-FL was added and the FP immediately measured for 60 minutes (90 minutes for PBP2).

SMILES | EC50 [µM]
CCN1CCN(C(=O)NC(C(=O)N[C@H]2Cc3cccc(C(=O)O)c3OB2O)c2ccc(O)c(S(N)(=O)=O)c2)C(=O)C1=O (some centres not stated) [US12173018, Example 143] | < 30
NCCN1CCN(C(=O)N[C@@H](C(=O)N[C@H]2Cc3cccc(C(=O)O)c3OB2O)c2ccc(O)c(O)c2Cl)C(=O)C1=O [US12173018, Example 220] | < 30
